# Measured values taken from article PMC10178848, “Modulating fast skeletal muscle contraction protects skeletal muscle in animal models of Duchenne muscular dystrophy” (The Journal of Clinical Investigation, 2023).
# Tested on: psoas S1 (fast skeletal muscle myosin)
# Test: Stopped-flow analysis of Pi release from myosin
# Format: biochemical, rabbit
# Set-up: dose or concentration left out as unconfirmed
# Conditions: preincubation with myosin 30 minutes prior to actin
# Method: The rate of Pi release from myosin with actin utilized a fluorescent phosphate binding protein, as described previously ([63]). Experiments were performed in 10 mM MOPS, pH 7.0; 5 mM KCL; 1 mM EGTA; 1 mM DTT; 0.5 mM MgCl2. ATP and ADP were removed by incubation with apyrase ([64]). Prior to mixing with 1 mM ATP in a stopped flow device, compound was incubated with 6 μM psoas S1 at 25°C for 30 minutes.
smiles,measurement,value
"Cc1ccc(S(=O)(=O)NCc2ccccc2)cc1 [BTS, N-benzyl-p-toluene sulfonamide, reference compound]",rate of Pi release from myosin with actin,decreased the rate of Pi release
